This is an account of results in patent publication US11091512B2, “Modulation of antigen immunogenicity by deleting epitopes recognized by NKT cells” (Imnate Sarl, priority 2010, dated 2021).

One assay relates to hemophilia A mice. The experiment in a line: direct immunization of hemophilia A mice with peptides containing a CD1d motif. The class given is in vivo. The note with it: direct immunization with peptide. The protocol:
Hemophilia A mice were immunized 3 times subcutaneously with 50 μg of an equimolar mixture of peptides of SEQ ID1 (44pept) and peptide of SEQ ID2 (256pept) adsorbed on aluminum hydroxyde. A control group received physiological serum instead of peptides. Plasma was taken 10 days after the last immunization and assessed for the presence of anti-Factor VIII antibodies, using a direct binding assay. Briefly, Factor VIII (10 IU/ml) was insolubilized on polystyrene plates, which were washed and incubated with a 1/10 dilution of plasma. After a further washing, a HRP-labeled goat anti-mouse antiserum was added, followed by an enzyme substrate. Colour development was read as OD.

The subject of assay [1] is NKT cells. As to the kind of experiment: CD1d tetramers loaded with FVIII peptides incubated with spleen CD4+ T cells of FVIII-immunized hemophilia A mice, Facs. In kind it is cell-based. The note with it: for binding of CD1d tetramers loaded with peptide: spleen CD4+ T cells of hemophilia A mice injected IV with FVIII 2 IU on 4 occasions, 15 aminoacid long peptides. As for the experimental part: To determine whether these sequences could activate NKT cells in vivo, FVIII (2 IU) was injected intravenously to hemophilia A mice on 4 occasions separated by a 1-week interval. Hemophilia A mice produce no FVIII due to a stop codon introduced in the FVIII gene in exon 16.
Mice were sacrificed 10 days after the last injection, the spleen was removed and CD4+ T cells were prepared by magnetic bead sorting. NKT cells are characterized by expression of CD4 and recognition of antigen presented by CD1d molecule. A tetramer of CD1d was obtained from a commercial supplier and loaded with 15 aminoacid long FVIII peptides, which included peptides containing SEQ ID1, SEQ ID2 and SEQ ID3.
Hemophilia A mice were immunized with 2 IU Factor VIII on 4 occasions separated by one week. The spleen was then removed and CD4+ T cells were prepared by magnetic bead sorting. A fluorochrome-labeled tetramer of CD1d was obtained from a commercial supplier and loaded with 15 aminoacid long FVIII peptides, which included peptides containing SEQ ID1, ID2 and ID3. Loading was carried out at room temperature overnight in the dark.
Tetramers were then incubated for 30 minutes at 4° C. with the CD4+ T cell population and the cell suspension was analyzed by Facs.

Another assay relates to CD4+ NKT cells. As to the kind of experiment: intranasal Der p 1 in BALB/c mice, spleen CD4+ T cells stained with peptide-loaded CD1d tetramers (facs). The class given is in vivo. Conditions: for percentage of CD4+ T cells stained with CD1d tetramers loaded with peptide: mice given natural sequence Der p 1 intranasally, 100 μg. As for the experimental part:
Peptides of SEQ ID13, SEQ ID14 and SEQ ID15 were synthesized and used to load CD1d tetramers.
BALB/c mice were submitted to intranasal administration of Der p 1, using 50 μl of saline containing 100 μg of Der p 1. This challenge procedure was repeated twice on three consecutive days at one-week interval. The mice were sacrificed 5 days after the last nasal instillation and the spleen was removed. CD4+ T cells were purified by magnetic bead sorting and incubated in the presence of the CD1d tetramers loaded with peptides of SEQ ID13, SEQ ID14 or SEQ ID15. By fluorescence-activated cell sorter (facs) determination, it was observed that a significant percentage of cells (±10%) were stained with the tetramers, identifying them as CD4+ NKT cells. It was therefore concluded that peptides of SEQ ID13, SEQ ID14 and SEQ ID15 were functional in binding to CD1d and in being recognized by NKT cells.
Next, a mutated form of Der p 1 was prepared by genetic engineering, in which the 3 aminoacid residues predicted to be in position P1 for CD binding of peptides of SEQ ID13, SEQ ID14 and SEQ ID15 were substituted by serine. The mutated Der p 1 (SEQ ID16) was used for nasal instillation as described above with Der p 1 in natural sequence (SEQ ID17).

Assay [2] relates to NKT cells. The experiment in a line: human CD1d tetramers loaded with IgG peptides, peripheral blood CD4+ T cells of patients given a therapeutic antibody (facs). In kind it is cell-based. Conditions: patients injected with a therapeutic antibody during the previous 5 days. The protocol:
Synthetic peptides corresponding to SEQ ID18, SEQ ID19 and SEQ ID20 were produced and used to load human CD1d tetramers as for the examples above (see for instance example 4 for allergen Der p 1). Peripheral blood cells were obtained by venous puncture of patients who had received an injection of a therapeutic antibody during the previous 5 days. CD4+ T cells were purified by magnetic bead sorting. The cells were then incubated with tetramers loaded with peptides of SEQ ID18, SEQ ID19 or SEQ ID20. Analysis by facs identifies a significant proportion of NKT cells (±10%) labeled by tetramers.

In assay [3] the test system is NKT cells. The experiment in a line: activation of NKT cells in vitro by human dendritic cells loaded with peptide or polypeptide. The class given is cell-based. As for the experimental part: (§1) Synthetic peptides corresponding to SEQ ID9 and SEQ ID10 were produced. Their capacity to activate NKT cells was determined in vitro using human dendritic cells derived from peripheral blood monocytes of an individual sensitized to Mal d 1. Dendritic cells loaded with each one of the two peptides were incubated in the presence of NKT cells obtained from the same individual by sorting peripheral lymphocytes using specific markers such as CD4 and NKG2D.
(§2) As for Mal d 1, human CD1d tetramers loaded with a synthetic peptide representing the motif identified in the polypeptide of […]

Assay [4] deals with NKT cells. As to the kind of experiment: human CD1d tetramers loaded with peptides, recognition by NKT cells. In kind it is cell-based. Conditions: Mal d 1 peptides. As for the experimental part: as §1, §2
For assay [5], the system named is NKT cells. The experiment in a line: JAWS2 cells loaded with Der p 1, production of IFN-gamma and IL-4 as markers of NKT activation. In kind it is cell-based. The note with it: JAWS2 cells loaded with the protein; cells from mice immunized with natural sequence Der p 1. As for the experimental part:
CD4+ T cells obtained from the above experiments were incubated in culture medium in the presence of an antigen-presenting cell which expresses the CD1d molecule. […] JAWS2 cells were loaded with Der p 1 and presentation of Der p 1-derived epitopes by CD1d was evaluated by measuring the production of cytokines such as IFN-gamma and IL-4 as markers of NKT activation.
Further, mutated Der p 1 (SEQ ID16) was used to load JAWS2 cells and tested for its capacity to activate NKT cells. For this experiment, NKT cells were used as obtained from mice immunized with Der p 1 in either natural or mutated configuration. The production of IFN-gamma and IL-4 was taken as an indication of NKT activation.

Setting [6] is: dendritic cells and NKT cells of an individual sensitized to Mal d 1.
Setting [7] is: alpha-gliadin polypeptide presented by antigen-presenting dendritic cells, same procedure as for Mal d 1.

Changes are numbered by the printed parent chain. Numbers in names are those of the source. Entries after “also recorded” stand apart in the source; their conditions may differ.

As for “FHAINGY [SEQ ID3, FVIII A3 domain aminoacids 1918-1924 CD1d motif; tested as 15 aminoacid long FVIII peptide containing it]”, in the assay on hemophilia A mice, the “activation of NKT cells” value was “sufficient as to elicit the activation of NKT cells”. Further, in the assay on NKT cells [1], the “binding of CD1d tetramers loaded with peptide” value is on record as “Significant binding”.
In the case of “FCHISSH (listed as Homo sapiens) [SEQ ID1, FVIII A1 domain aminoacids 309-315 CD1d motif; tested as 15 aminoacid long FVIII peptide containing it]”, the “activation of NKT cells” value in the assay with hemophilia A mice was “sufficient as to elicit the activation of NKT cells; also recorded: Prominent activation”. For the same molecule, the “% of NKT cells recognizing peptide-loaded CD1d tetramers” value in the assay with NKT cells [1] (FIG. 1, CD4+ T cells of hemophilia A mice immunized with Factor VIII) is listed as “Up to 45%”. Besides, the “binding of CD1d tetramers loaded with peptide” value with NKT cells [1] was “Significant binding”.
As to “FSGVAAT (listed as Dermatophagoides pteronyssinus) [SEQ ID13, aminoacids 38-44 of Der p 1]”, the “percentage of CD4+ T cells stained with CD1d tetramers loaded with peptide” value (shortened to “percentage of CD4+ T cells stained”) in the assay with CD4+ NKT cells is reported as roughly 10%.
With “FRVVSVL (listed as Homo sapiens) [SEQ ID19, CH2 of IgG2 and IgG3]”, the “proportion of NKT cells labeled by tetramers” value (“proportion … by tetramers” below) in the assay with NKT cells [2] was roughly 10%.
As for “FKLIESY (listed as Malus domestica) [SEQ ID9, synthetic peptide, aminoacids 144-150 of Mal d 1]”, the “activation of NKT cells” value in the assay on NKT cells [3] (setting [6]) was “activated a significant proportion of NKT cells”. Moreover, the “recognition of peptide-loaded human CD1d tetramers by NKT cells” value in the assay on NKT cells [4] is recorded as “recognized by a significant proportion of NKT cells”.
With “FWKVQHH (listed as Homo sapiens) [SEQ ID2, FVIII A3 domain aminoacids 1816-1822 CD1d motif; tested as 15 aminoacid long FVIII peptide containing it]”, the “activation of NKT cells” value with hemophilia A mice is reported as “sufficient as to elicit the activation of NKT cells”. Besides, the “binding of CD1d tetramers loaded with peptide” value with NKT cells [1] is “Significant binding”.
Take “SKLIESS (listed as Malus domestica) [SEQ ID10, synthetic peptide of Mal d 1 motif with F144S and Y150S mutations]”: in the assay with NKT cells [3] (setting [6]), the “activation of NKT cells” value is recorded as “did not”. Besides, the “proportion of NKT cells recognizing peptide-loaded human CD1d tetramers” value with NKT cells [4] is reported as “less than 1%”.
“YRVVSVL (listed as Homo sapiens) [SEQ ID18, CH2 of IgG1 and IgG4]”: the “proportion … by tetramers” value in the assay on NKT cells [2] is recorded as roughly 10%.
In the case of “HSAIAAVI (listed as Dermatophagoides pteronyssinus) [SEQ ID14, aminoacids 135-141 of Der p 1]”, the “percentage of CD4+ T cells stained” value with CD4+ NKT cells is given as roughly 10%.
Consider “HEALHNH (listed as Homo sapiens) [SEQ ID20, CH3 loop of IgG1, IgG2 and IgG4]”, for which, in the assay with NKT cells [2], the “proportion … by tetramers” value is on record as roughly 10%.
For the molecule “YPYVVIL (listed as Dermatophagoides pteronyssinus) [SEQ ID15, aminoacids 216-222 of Der p 1]”, in the assay on CD4+ NKT cells, the “percentage of CD4+ T cells stained” value is recorded as roughly 10%.

B1: SEQ ID11: alpha-gliadin polypeptide, natural sequence with CD1d binding motif (protein, listed as Homo sapiens)
chain: MVRVPVPQLQPQNPSQQQPQEQVPLVQQQQFPGQQQPFPPQQPYPQPQPFPSQQPYLQLQPFPQPQLPYPQPQLPYPQPQLPYPQPQPFRPQQPYPQSQPQYSQPQQPISQQQQQQQQQQQQKQQQQQQQQILQQILQQQLIPCRDVVLQQHSIAYGSSQVLQQSTYQLVQQLCCQQLWQIPEQSRCQAIHNVVHAIILHQQQQQQQQQQQQPLSQVSFQQPQQQYPSGQGSFQPSQQNPQAQGSVQPQQLPQFEEIRNLALETLPAMCNVYIPPYCTIAPVGIFGTNYR
For B1, the “activation of NKT cells” value in the assay with NKT cells [3] (setting [7]) was “activated a significant proportion of NKT cells”.

B2: SEQ ID12: mutated form of alpha-gliadin in which the F residue of the motif was substituted by S (protein, listed as Homo sapiens)
chain: B1 chain with Y56S, Y167S, H191S, F254S, Y276S
Take B2: the “activation of NKT cells” value with NKT cells [3] (setting [7]) is on record as “failed to do so”.

B3: Der p 1: cysteine protease, main allergen of house dust mite D. pteronyssinus, natural sequence (protein, listed as Dermatophagoides pteronyssinus)
chain: ETNACSINGNAPAEIDLRQMRTVTPIRMQGGCGSCWAFSGVAATESAYLAYRNQSLDLAEQELVDCASQHGCHGDTIPRGIEYIQHNGVVQESYYRYVAREQSCRRPNAQRFGISNYCQIYPPNVNKIREALAQTHSAIAVIIGIKDLDAFRHYDGRTIIQRDNGYQPNYHAVNIVGYSNAQGVDYWIVRNSWDTNWGDNGYGYFAANIDLMMIEEYPYVVIL
Regarding B3, the “NKT activation (production of IFN-gamma and IL-4)” value with NKT cells [5] was “significant production of cytokines”.

B4: SEQ ID16: mature Der p 1 with P1 anchoring residues F38S, H135S and Y216S mutated (protein, listed as Dermatophagoides pteronyssinus)
chain: B3 chain with F38S, H136S, Y217S
Turning to B4, the “NKT activation (production of IFN-gamma and IL-4)” value in the assay on NKT cells [5] was “failed to be activated”. Further, the “binding of CD4+ T cell splenocytes to tetramers loaded with peptide of SEQ ID13, SEQ ID14 or SEQ ID15” value with CD4+ NKT cells (mice given the protein by nasal instillation) is listed as “no significant binding”.
